Results: patent US20210179680A1, “POLYPEPTIDE, DERIVATIVES THEREOF, AND APPLICATION THEREOF IN PREPARATION OF DRUGS HAVING RESISTANCE TO PULMONARY FIBROSIS” (priority 2016, published 2021)
Bridge positions count the residues as written; N and C are the ends. Square brackets hold non-standard residues; d marks the D form. Peptide text beside a SMILES is read from it. S5 = C=CCCC[C@](C)(N)C(=O)O

Assays:
[1] = system: mice with bleomycin-induced pulmonary fibrosis; assay: Lung weight index in mice with pulmonary fibrosis; format: in vivo, C57BL/6 mice; details: Table 3 groups, 2 mg/kg i.p.; after 28 days; lung weight (mg) divided by body weight (g)
Method: Male C57BL/6 mice were fasted overnight, then anesthetized with 45 mg/kg sodium pentobarbital by injection intraperitoneally (i.p.), and intratracheally injected with bleomycin at a dose of 3 U/kg. The specific operation steps are as follows: cut the neck skin of the mouse with as little trauma as possible, expose the trachea with the assistance of elbow ophthalmic forceps, puncture the trachea and inject about 50 μL of bleomycin into the trachea with a microsyringe, rotate the mouse quickly and stand it upright for 5 minutes in order to make bleomycin evenly enter the left and right lobe, thereby constructing an animal model. The whole operation was performed at a surgical table at about […]. Mice in the sham operation group were intratracheally injected with an equal amount of physiological saline for injection.
Pulmonary fibrosis model was prepared according to the method described in Example 2, and administered in groups according to Table 3. After 28 days, the lungs of the mice were finely stripped and weighed, and a lung weight index was obtained from dividing the lung weight (mg) by the body weight (g) of the mice. […] In FIG. 7, “##” represents that P value is less than 0.01 when the lung weight index of administration group was compared with that of the sham operation group; “*” represents that P value is less than 0.05 when the lung weight index of administration group was compared with that of the bleomycin group; “**” represents that P value is less than 0.01 when the lung weight index of administration group was compared with that of bleomycin group.
Pulmonary fibrosis models were made according to the method described in Example 2 and administered in groups according to Table 9. After 28 days, the lungs of the mice were finely stripped and weighed, and the lung weight (mg) was divided by the body weight (g) of the mice to obtain a lung weight index. […] In FIG. 13, “##” represents that P value is less than 0.01 when the lung weight index of the administration groups were compared with that of the sham operation group; “*” represents that P value is less than 0.05 and “**” represents that P value is less than 0.01 when the lung weight index of the administration groups were compared with bleomycin group.

[2] = α-helix ratio of polypeptides by circular dichroism; format: physicochemical; details: PBS solution, 1 mg/mL
Method: The α-helix ratio of the polypeptide was measured by a circular dichromatograph (purchased from Jasco, Japan). The polypeptides MR2, S1, S2, S3, S4, S5, S6, S7, S8, S9, S10 and S11 prepared in Example 1 were dissolved in PBS solution, and the working concentration of the circular dichromatograph was adjusted to 1 mg/mL. […] Among them, the α-helix ratio refers to the percentage of the number of peptide segments of the polypeptide that maintains the alpha helix of the secondary structure in the peptide segments of the total polypeptide.

Row | SMILES | Lung weight index [1] | α-helicity (%) [2] | α-helix ratio compared with polypeptide MR2 (in words) [2]
1 | CSCC[C@H](NC(=O)[C@H](CC(C)C)NC(=O)[C@@H](N)Cc1c[nH]cn1)C(=O)N[C@@H](C)C(=O)N[C@@H](CS)C(=O)N[C@@H](Cc1ccccc1)C(=O)N[C@H](C(=O)N[C@@H](CS)C(=O)N[C@@]1(C)CCCC=CCCC[C@@](C)(C(=O)N[C@@H](CCCCN)C(=O)N[C@@H](CCCNC(=N)N)C(=O)O)NC(=O)[C@H](CC(C)C)NC(=O)[C@H](CCCCN)NC(=O)[C@H](CCCCN)NC1=O)[C@@H](C)O [S9, His-Leu-Met-Ala-Cys-Phe-Thr-Cys-S5-Lys-Lys-Leu-S5-Lys-Arg] (H-HLMACFTC[S5]KKL[S5]KR-OH; staple 9-13; N-terminus and C-terminus assumed) | 7.4125 | 44.0% | significantly higher than that of polypeptide MR2
2 | CSCC[C@H](NC(=O)[C@H](CC(C)C)NC(=O)[C@@H](N)Cc1c[nH]cn1)C(=O)N[C@@H](C)C(=O)N[C@@H](CS)C(=O)N[C@@H](Cc1ccccc1)C(=O)N[C@H](C(=O)N[C@@H](CS)C(=O)N[C@@H](C)C(=O)N[C@@]1(C)CCCC=CCCC[C@@](C)(C(=O)N[C@@H](CCCNC(=N)N)C(=O)O)NC(=O)[C@H](CCCCN)NC(=O)[C@H](CC(C)C)NC(=O)[C@H](CCCCN)NC1=O)[C@@H](C)O [S10, His-Leu-Met-Ala-Cys-Phe-Thr-Cys-Ala-S5-Lys-Leu-Lys-S5-Arg] (H-HLMACFTCA[S5]KLK[S5]R-OH; staple 10-14; N-terminus and C-terminus assumed) | 8.8875 | 31.5% | significantly higher than that of polypeptide MR2
3 | CSCC[C@H](NC(=O)[C@H](CC(C)C)NC(=O)[C@@H](N)Cc1c[nH]cn1)C(=O)N[C@@H](C)C(=O)N[C@@H](CS)C(=O)N[C@@H](Cc1ccccc1)C(=O)N[C@H](C(=O)N[C@@H](CS)C(=O)N[C@@H](C)C(=O)N[C@@H](CCCCN)C(=O)N[C@@]1(C)CCCC=CCCC[C@@](C)(C(=O)O)NC(=O)[C@H](CCCCN)NC(=O)[C@H](CCCCN)NC(=O)[C@H](CC(C)C)NC1=O)[C@@H](C)O [S11, His-Leu-Met-Ala-Cys-Phe-Thr-Cys-Ala-Lys-S5-Leu-Lys-Lys-S5] (H-HLMACFTCAK[S5]LKK[S5]-OH; staple 11-15; N-terminus and C-terminus assumed) | 9.2875 | 37.8% | significantly higher than that of polypeptide MR2
